{"source": "paper PMC7708446", "about": "“^18F-meta-fluorobenzylguanidine (^18F-mFBG) to monitor changes in norepinephrine transporter expression in response to therapeutic intervention in neuroblastoma models” (Scientific Reports, 2020)", "key": {"NET-1": {"molecular_target": "T1, NET-1 (Homo sapiens, UniProt P23975)", "T1 construct": "SK-N-SH, SK-N-BE(2)C, Kelly, NBLS human NB cell lines; endogenous in cells; host or cells: SK-N-SH, SK-N-BE(2)C, Kelly, NBLS human neuroblastoma cell lines", "T1 sequence (P23975 whole entry)": "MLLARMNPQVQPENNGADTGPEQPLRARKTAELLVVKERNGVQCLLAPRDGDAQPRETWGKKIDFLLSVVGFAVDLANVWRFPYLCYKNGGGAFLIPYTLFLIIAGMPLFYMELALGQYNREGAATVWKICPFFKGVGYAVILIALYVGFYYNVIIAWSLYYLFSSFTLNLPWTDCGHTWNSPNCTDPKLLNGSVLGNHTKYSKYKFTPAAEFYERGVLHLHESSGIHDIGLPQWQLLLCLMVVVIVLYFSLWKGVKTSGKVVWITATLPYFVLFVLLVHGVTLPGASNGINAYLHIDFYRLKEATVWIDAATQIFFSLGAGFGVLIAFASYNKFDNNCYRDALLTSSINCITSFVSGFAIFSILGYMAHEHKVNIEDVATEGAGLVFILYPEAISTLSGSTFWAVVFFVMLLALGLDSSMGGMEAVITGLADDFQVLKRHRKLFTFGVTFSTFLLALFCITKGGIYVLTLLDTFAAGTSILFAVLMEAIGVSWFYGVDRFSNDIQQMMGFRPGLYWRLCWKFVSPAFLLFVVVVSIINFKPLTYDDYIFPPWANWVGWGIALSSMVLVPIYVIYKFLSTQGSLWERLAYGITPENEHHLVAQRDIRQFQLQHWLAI", "assay": "^18F-mFBG / ^123I-mIBG uptake in NB cell lines with and without desipramine", "format": "cell-based", "details": "1 h at 37 °C, rank among Kelly, SK-N-SH, NBLS", "text": "Figure 1 (a) Simplified radiosynthesis scheme of ^18F-mFBG by copper-mediated deborylation. (b) Total NET-1 protein expression in selected NB cell lines determined by Western blot. Full length blots are presented in Supplementary Figure WB1. […] Data are presented as mean ± SEM, n ≥ 2 per group, performed in triplicate. Graphs are generated using GraphPad Prism (v 8.4.1), https://www.graphpad.com.\nFor each cell line the cell-associated radioactivity was normalised to the number of cells and then each group was presented as a percentage of the signal acquired for SK-N-BE(2)C cells (mean of n = 3 independent experiments performed in triplicate ± SEM)."}, "Kelly xenografts [1]": {"test_system": "Kelly xenografts", "assay": "Ex vivo biodistribution (γ-counter), mice bearing Kelly xenografts", "format": "in vivo", "details": "for ^18F-mFBG biodistribution 4 h p.i., Blood / ^18F-mFBG biodistribution 4 h p.i., Bone / ^18F-mFBG biodistribution 4 h p.i., Brown adipose / ^18F-mFBG biodistribution 4 h p.i., Heart / ^18F-mFBG biodistribution 4 h p.i., Kidney / ^18F-mFBG biodistribution 4 h p.i., Liver / ^18F-mFBG biodistribution 4 h p.i., Lungs / ^18F-mFBG biodistribution 4 h p.i., Muscle / ^18F-mFBG biodistribution 4 h p.i., Pancreas / ^18F-mFBG biodistribution 4 h p.i., Small intestine / ^18F-mFBG biodistribution 4 h p.i., Spleen / ^18F-mFBG biodistribution 4 h p.i., Tumour / ^18F-mFBG biodistribution 4 h p.i., Tumour:blood / ^18F-mFBG biodistribution 4 h p.i., Tumour:muscle: Kelly, 3 days", "experimental": "All studies were conducted in compliance with licenses issued under the UK Animals (Scientific Procedures) Act 1986 and approved by the Institute of Cancer Research Animal Welfare and Ethical Review Body (AWERB) according to the United Kingdom National Cancer Research Institute Guidelines for Animal Welfare in Cancer Research (project license PCC916B22, Animals in Science Regulation Unit, Home Office Science, London, UK)[65]. Female Nu(NCr)-Foxn1nu mice (5–7 weeks; 20–22 g) obtained from an in-house breeding colony were used in the studies. Animals were housed in a temperature-controlled facility with 12 h on–12 h off light cycle and provided water and laboratory rodent food ad libitum. Subcutaneous xenografts were generated by injection of either Kelly (5 × 10^6/0.1 mL PBS/Matrigel 30% v/v; BD Matrigel Matrix, BD Bioscience, San Jose, California, US) or SK-N-BE(2)C (1 × 10^6/0.1 mL PBS/Matrigel) into the lower flank. For the treatment studies, AZD2014 stock solution in DMSO was diluted in PEG400 to a final concentration of 2 mg/mL (10% DMSO maximum). When tumours reached ~ 100 mm^3 (calliper measurements using formula: Volume = (Width(2) × Length)/2), mice were treated daily, for a total of either 1, 3 or 7 days, by oral gavage with AZD2014 (20 or 25 mg/kg/day) or vehicle control. Mice were monitored daily for body weight or other adverse effects.\n(§1) When the tumours reached approximately 100–200 mm^3, mice were anaesthetised with an isoflurane/O2 mixture (1.5–2.0% v/v) and intravenously injected with either ^18F-mFBG (~ 7.5 MBq) or ^123I-mIBG (~ 20 MBq). Mice were then imaged using an Albira PET/SPECT/CT scanner (Bruker, Coventry, UK). Whole body PET static images were acquired after 1 and 4 h post-injection (p.i.) for 10 min with an energy window of 358 to 664 keV followed by CT acquisition. Acquisition, reconstruction and image analysis were performed as described previously. Following the final scan, the mice were sacrificed and the major organs were excised, weighed and their associated radioactivity was measured using a γ-counter. Biodistribution and image quantification were expressed as a percentage of injected dose per gram of tissue (%ID/g), whereby 1 cm^3 on PET acquisitions were assumed to equal 1 g (n ≥ 3 mice ± SD)."}, "Kelly xenografts [2]": {"test_system": "Kelly xenografts", "assay": "PET quantification of tumour uptake, Kelly xenografts", "format": "in vivo, mice", "experimental": "as §1"}, "SK-N-BE(2)C xenografts": {"test_system": "SK-N-BE(2)C xenografts", "assay": "PET quantification of tumour uptake, SK-N-BE(2)C xenografts", "format": "in vivo, mice", "experimental": "as §1"}, "[3]": {"assay": "Biodistribution and PET statements pooled over Kelly and SK-N-BE(2)C xenograft-bearing mice", "format": "in vivo", "details": "1 h p.i.", "experimental": "as §1, with “Whole body PET static images were acquired after 1 and 4 h post-injection (p.i.) for 10 min with an energy window of 358 to 664 keV followed by CT acquisition.” left out"}}, "data": [{"compound": "N=C(N)NCc1cccc([18F])c1", "note": "[^18F-mFBG, ^18F-meta-fluorobenzylguanidine]", "values": [{"measurement": "cell-associated radioactivity, SK-N-BE(2)C", "setting": "NET-1", "result": "greatest uptake"}, {"measurement": "cell-associated radioactivity, Kelly", "setting": "NET-1; SK-N-BE(2)C", "result": "least uptake"}, {"measurement": "tumour uptake", "setting": "Kelly xenografts [1]; Kelly xenografts, 4 h p.i., n = 3", "result": "0.30 ± 0.14", "unit": "%ID/g"}, {"measurement": "^18F-mFBG biodistribution 4 h p.i., Blood", "setting": "Kelly xenografts [1]; AZD2014 (25 mg/kg/day)", "result": "0.19 ± 0.03", "unit": "%ID/g"}, {"measurement": "^18F-mFBG biodistribution 4 h p.i., Bone", "setting": "Kelly xenografts [1]; AZD2014 (25 mg/kg/day)", "result": "0.99 ± 0.07", "unit": "%ID/g"}, {"measurement": "^18F-mFBG biodistribution 4 h p.i., Brown adipose", "setting": "Kelly xenografts [1]; AZD2014 (25 mg/kg/day)", "result": "7.20 ± 0.88", "unit": "%ID/g"}, {"measurement": "^18F-mFBG biodistribution 4 h p.i., Heart", "setting": "Kelly xenografts [1]; AZD2014 (25 mg/kg/day)", "result": "4.22 ± 0.85", "unit": "%ID/g"}, {"measurement": "^18F-mFBG biodistribution 4 h p.i., Kidney", "setting": "Kelly xenografts [1]; AZD2014 (25 mg/kg/day)", "result": "0.97 ± 0.17", "unit": "%ID/g"}, {"measurement": "^18F-mFBG biodistribution 4 h p.i., Liver", "setting": "Kelly xenografts [1]; AZD2014 (25 mg/kg/day)", "result": "2.08 ± 0.45", "unit": "%ID/g"}, {"measurement": "^18F-mFBG biodistribution 4 h p.i., Lungs", "setting": "Kelly xenografts [1]; AZD2014 (25 mg/kg/day)", "result": "1.31 ± 0.39", "unit": "%ID/g"}, {"measurement": "^18F-mFBG biodistribution 4 h p.i., Muscle", "setting": "Kelly xenografts [1]; AZD2014 (25 mg/kg/day)", "result": "0.64 ± 0.17", "unit": "%ID/g"}, {"measurement": "^18F-mFBG biodistribution 4 h p.i., Pancreas", "setting": "Kelly xenografts [1]; AZD2014 (25 mg/kg/day)", "result": "1.25 ± 0.21", "unit": "%ID/g"}, {"measurement": "^18F-mFBG biodistribution 4 h p.i., Small intestine", "setting": "Kelly xenografts [1]; AZD2014 (25 mg/kg/day)", "result": "7.30 ± 1.11", "unit": "%ID/g"}, {"measurement": "^18F-mFBG biodistribution 4 h p.i., Spleen", "setting": "Kelly xenografts [1]; AZD2014 (25 mg/kg/day)", "result": "4.58 ± 0.77", "unit": "%ID/g"}, {"measurement": "^18F-mFBG biodistribution 4 h p.i., Tumour", "setting": "Kelly xenografts [1]; AZD2014 (25 mg/kg/day)", "result": "0.74 ± 0.25", "unit": "%ID/g"}, {"measurement": "^18F-mFBG biodistribution 4 h p.i., Tumour:blood", "setting": "Kelly xenografts [1]; AZD2014 (25 mg/kg/day)", "result": "4.16 ± 1.89"}, {"measurement": "^18F-mFBG biodistribution 4 h p.i., Tumour:muscle", "setting": "Kelly xenografts [1]; AZD2014 (25 mg/kg/day)", "result": "1.23 ± 0.61"}, {"measurement": "^18F-mFBG biodistribution 4 h p.i., Blood", "setting": "Kelly xenografts [1]; Vehicle", "result": "0.22 ± 0.05", "unit": "%ID/g"}, {"measurement": "^18F-mFBG biodistribution 4 h p.i., Bone", "setting": "Kelly xenografts [1]; Vehicle", "result": "1.43 ± 0.83", "unit": "%ID/g"}, {"measurement": "^18F-mFBG biodistribution 4 h p.i., Brown adipose", "setting": "Kelly xenografts [1]; Vehicle", "result": "5.84 ± 2.44", "unit": "%ID/g"}, {"measurement": "^18F-mFBG biodistribution 4 h p.i., Heart", "setting": "Kelly xenografts [1]; Vehicle", "result": "6.34 ± 1.41", "unit": "%ID/g"}, {"measurement": "^18F-mFBG biodistribution 4 h p.i., Kidney", "setting": "Kelly xenografts [1]; Vehicle", "result": "1.11 ± 0.47", "unit": "%ID/g"}, {"measurement": "^18F-mFBG biodistribution 4 h p.i., Liver", "setting": "Kelly xenografts [1]; Vehicle", "result": "2.37 ± 0.71", "unit": "%ID/g"}, {"measurement": "^18F-mFBG biodistribution 4 h p.i., Lungs", "setting": "Kelly xenografts [1]; Vehicle", "result": "1.52 ± 0.22", "unit": "%ID/g"}, {"measurement": "^18F-mFBG biodistribution 4 h p.i., Muscle", "setting": "Kelly xenografts [1]; Vehicle", "result": "0.74 ± 0.23", "unit": "%ID/g"}, {"measurement": "^18F-mFBG biodistribution 4 h p.i., Pancreas", "setting": "Kelly xenografts [1]; Vehicle", "result": "1.26 ± 0.28", "unit": "%ID/g"}, {"measurement": "^18F-mFBG biodistribution 4 h p.i., Small intestine", "setting": "Kelly xenografts [1]; Vehicle", "result": "6.57 ± 1.12", "unit": "%ID/g"}, {"measurement": "^18F-mFBG biodistribution 4 h p.i., Spleen", "setting": "Kelly xenografts [1]; Vehicle", "result": "3.77 ± 0.82", "unit": "%ID/g"}, {"measurement": "^18F-mFBG biodistribution 4 h p.i., Tumour", "setting": "Kelly xenografts [1]; Vehicle", "result": "0.39 ± 0.13", "unit": "%ID/g"}, {"measurement": "^18F-mFBG biodistribution 4 h p.i., Tumour:blood", "setting": "Kelly xenografts [1]; Vehicle", "result": "1.75 ± 0.29"}, {"measurement": "^18F-mFBG biodistribution 4 h p.i., Tumour:muscle", "setting": "Kelly xenografts [1]; Vehicle", "result": "0.53 ± 0.01"}, {"measurement": "PET tumour uptake", "setting": "Kelly xenografts [2]; 1 h p.i., n = 9", "result": "1.10 ± 0.34", "unit": "%ID/g"}, {"measurement": "PET tumour uptake", "setting": "Kelly xenografts [2]; 4 h p.i., n = 5", "result": "0.65 ± 0.29", "unit": "%ID/g"}, {"measurement": "PET tumour uptake", "setting": "SK-N-BE(2)C xenografts; 1 h p.i., n = 21", "result": "2.46 ± 0.71", "unit": "%ID/g"}, {"measurement": "PET tumour uptake", "setting": "SK-N-BE(2)C xenografts; 4 h p.i., n = 15", "result": "3.88 ± 1.15", "unit": "%ID/g"}, {"measurement": "radiotracer uptake, brown adipose tissue (BAT)", "setting": "[3]", "result": "> 7.0", "unit": "%ID/g"}, {"measurement": "radiotracer uptake, heart", "setting": "[3]", "result": "> 12.0", "unit": "%ID/g"}, {"measurement": "radiotracer uptake, small intestine", "setting": "[3]", "result": "~ 8.0 %ID/g"}]}]}
